The target of assay [1] is T1, N-terminally FLAG-tagged PARP2 (amino acids 1-583) (Homo sapiens, UniProt Q9UGN5).
T1 construct: N-terminally FLAG-tagged PARP2 (amino acids 1-583)
Briefly: PARP2 probe displacement HTRF assay. The class given is binding. The note with it: binned Kd. As to the method: Data analysis was performed identical as for PARP1.
A general note: Time-resolved FRET reads energy transfer from a long-lived donor to a nearby acceptor.

Assay [2] concerns the target T2, full length N-terminally FLAG-tagged PARP1 (Homo sapiens, UniProt P09874). Description: PARP1 probe displacement HTRF assay. The note with it: for Selectivity: PARP1 over PARP2, ratio Kd (PARP2)/Kd (PARP1); for pKd: binned Kd.
In assay [3] the target is T2, full length N-terminally FLAG-tagged PARP1. Briefly: PARP1 biochemical DELFIA assay (auto-PARylation). Set-up: recombinant full length human N-terminally FLAG-tagged PARP1.
The mark [4] stands for this setting: read-out: PARP1 HTRF, probe displacement HTRF.
[5] abbreviates: binned IC50, biochemical auto-PARylation assay.
[6] abbreviates: read-out: PARP1 HTRF, PARP1 probe displacement HTRF.
[7] abbreviates: binned IC50, PARP1 biochemical DELFIA assay.
[8] abbreviates: PARP1 HTRF, probe displacement HTRF.

Structures are written as SMILES. pIC50, pKd: −log10 of the molar value. Read-outs that look alike come from different tables or passages of the source. A value given as a limit tells only on which side of the number the result lay.

Broadly, the pIC50 is the IC50 on a negative log10 scale, so that one unit is a factor of ten.

T2 sequence (P09874 whole entry): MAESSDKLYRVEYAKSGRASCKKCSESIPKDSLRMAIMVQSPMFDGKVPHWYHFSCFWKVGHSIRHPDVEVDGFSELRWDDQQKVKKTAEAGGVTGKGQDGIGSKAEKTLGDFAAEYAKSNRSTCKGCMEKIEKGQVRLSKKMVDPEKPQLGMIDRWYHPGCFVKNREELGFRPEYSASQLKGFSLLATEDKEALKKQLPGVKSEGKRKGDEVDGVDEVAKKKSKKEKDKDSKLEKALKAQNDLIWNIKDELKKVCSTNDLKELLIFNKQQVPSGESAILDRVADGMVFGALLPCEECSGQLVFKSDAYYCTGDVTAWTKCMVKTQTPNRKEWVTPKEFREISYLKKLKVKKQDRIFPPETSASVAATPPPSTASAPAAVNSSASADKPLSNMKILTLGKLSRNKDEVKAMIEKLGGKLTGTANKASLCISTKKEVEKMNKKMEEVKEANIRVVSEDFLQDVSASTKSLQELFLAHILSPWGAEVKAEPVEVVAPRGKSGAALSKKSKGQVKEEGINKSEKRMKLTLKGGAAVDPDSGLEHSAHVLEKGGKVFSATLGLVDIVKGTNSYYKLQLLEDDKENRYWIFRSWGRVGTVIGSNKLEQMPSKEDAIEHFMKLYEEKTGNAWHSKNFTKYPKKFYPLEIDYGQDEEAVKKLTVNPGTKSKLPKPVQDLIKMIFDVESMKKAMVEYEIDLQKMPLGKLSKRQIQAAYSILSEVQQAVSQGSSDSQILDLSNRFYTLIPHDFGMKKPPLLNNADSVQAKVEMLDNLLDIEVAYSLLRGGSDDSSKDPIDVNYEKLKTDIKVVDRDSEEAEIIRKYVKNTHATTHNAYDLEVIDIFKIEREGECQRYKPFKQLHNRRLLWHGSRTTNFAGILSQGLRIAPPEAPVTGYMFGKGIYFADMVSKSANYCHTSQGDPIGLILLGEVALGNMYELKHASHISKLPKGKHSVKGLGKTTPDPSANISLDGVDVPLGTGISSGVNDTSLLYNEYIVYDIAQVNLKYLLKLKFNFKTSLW
T1 sequence (Q9UGN5 whole entry, the tested form may be a part): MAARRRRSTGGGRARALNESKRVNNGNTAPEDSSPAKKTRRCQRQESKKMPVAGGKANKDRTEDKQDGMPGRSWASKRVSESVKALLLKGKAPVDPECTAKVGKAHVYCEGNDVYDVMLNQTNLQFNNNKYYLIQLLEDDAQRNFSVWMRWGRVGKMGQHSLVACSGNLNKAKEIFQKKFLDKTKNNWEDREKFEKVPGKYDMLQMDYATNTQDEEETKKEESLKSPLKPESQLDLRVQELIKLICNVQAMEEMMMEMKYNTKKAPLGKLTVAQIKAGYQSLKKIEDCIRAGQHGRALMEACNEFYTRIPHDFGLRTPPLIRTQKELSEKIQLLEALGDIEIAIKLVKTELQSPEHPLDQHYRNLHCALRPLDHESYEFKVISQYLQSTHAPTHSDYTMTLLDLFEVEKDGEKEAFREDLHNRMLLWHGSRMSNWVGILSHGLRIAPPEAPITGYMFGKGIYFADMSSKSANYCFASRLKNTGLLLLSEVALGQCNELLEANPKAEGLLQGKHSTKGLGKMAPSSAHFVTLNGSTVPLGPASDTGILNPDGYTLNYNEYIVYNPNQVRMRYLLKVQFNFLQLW

Take `O=C(NCC(F)F)c1ccc(N2CCC(N3CCC(c4cc5ccc(F)cc5c(=O)[nH]4)C3)CC2)c(F)n1` (single isomer, unassigned) [Compound 399b]: the pKd in assay [1] (probe displacement HTRF) is 7.00 to 8.00; in assay [2] (setting [4]), over 8.00. Moreover, the Selectivity entry in assay [2] (probe displacement HTRF) is listed as “+ (+ indicates a value of 10 to less than 50)”. The pIC50 in assay [3] (setting [5]) is over 8.00.
`CNC(=O)c1ccc(N2CCC(N3CCC(c4ccc(C5CC5)c(=O)[nH]4)C3)CC2)cn1` (racemic) [Compound 141rac]: the pKd in assay [1] (PARP2 probe displacement HTRF) was 5.00 to 6.00; in assay [2] (setting [6]) it was over 8.00. In assay [2] (probe displacement HTRF), the Selectivity result was “+++ (+++ indicate a value of at least 100)”. In addition, in assay [3] (setting [7]), the pIC50 is over 8.00.
For the compound `CNC(=O)c1ccc(N2CCC(N3CCCC(c4nc5onc(C(F)(F)F)c5c(=O)[nH]4)C3)CC2)cn1` (racemic) [Compound 191rac], the pKd in assay [1] (PARP2 probe displacement HTRF) is under 5.00; in assay [2] (setting [6]) it was 6.00 to 7.00. Besides, the Selectivity result in assay [2] (probe displacement HTRF) is given as “+ (+ indicates a value of 10 to less than 50)”. In addition, in assay [3] (setting [7]), the pIC50 is 6.00 to 7.00.
Turning to `CCc1ccc(C2CCN(C3CCN(c4cnc(C(=O)NC5CC5)c(F)c4)CC3)C2)[nH]c1=O` (single isomer, unassigned) [Compound 408b], the pKd in assay [1] (probe displacement HTRF) is 5.00 to 6.00; in assay [2] (setting [4]) it was 7.00 to 8.00. For the same compound, the Selectivity entry in assay [2] (probe displacement HTRF) is given as “+ (+ indicates a value of 10 to less than 50)”. Further, the pIC50 in assay [3] (setting [5]) was 7.00 to 8.00.
Take `CC(=O)Nc1ccc(N2CCC(N3CCC(c4nc5ccccc5c(=O)[nH]4)C3)CC2)cn1` (single isomer, unassigned) [Compound 262b]: the pKd was 5.00 to 6.00 in assay [1] (probe displacement HTRF) and 6.00 to 7.00 in assay [2] (setting [4]). The Selectivity entry in assay [2] (probe displacement HTRF) is “+ (+ indicates a value of 10 to less than 50)”. In addition, in assay [3] (setting [5]), the pIC50 is 6.00 to 7.00.
For `CCc1ccc(C2CCN(C3CCN(c4ccc(C(=O)NC)nc4C(F)F)CC3)C2)[nH]c1=O` (single isomer, unassigned) [Compound 164b], the results for the pKd in assay [1] (PARP2 probe displacement HTRF) and in assay [2] (setting [6]) were under 5.00 and 7.00 to 8.00, respectively. In assay [2] (probe displacement HTRF), the Selectivity entry is on record as “+++ (+++ indicate a value of at least 100)”. Moreover, the negative-log IC50 (pIC50) in assay [3] (setting [7]) is 7.00 to 8.00.
Turning to `N#Cc1nc(C(=O)NC2CC2)ccc1N1CCC(N2CCC(c3cc4ccc(F)cc4c(=O)[nH]3)C2)CC1` (single isomer, unassigned) [Compound 397b], the pKd in assay [1] (probe displacement HTRF) is 7.00 to 8.00; in assay [2] (setting [4]), over 8.00. Further, the Selectivity entry in assay [2] (probe displacement HTRF) is “+++ (+++ indicate a value of at least 100)”. In assay [3] (setting [5]), the negative logarithm of the IC50 (pIC50) was over 8.00.
As for `CNC(=O)c1ccc(N2CCC(N3CCCC(c4nc5sc6c(c5c(=O)[nH]4)CCC6)C3)CC2)cn1` (single isomer, unassigned) [Compound 185a], the pKd in assay [1] (PARP2 probe displacement HTRF) is 6.00 to 7.00; in assay [2] (setting [6]), over 8.00. Also, the Selectivity entry in assay [2] (probe displacement HTRF) is “+++ (+++ indicate a value of at least 100)”. Besides, the pIC50 in assay [3] (setting [7]) is over 8.00.
For `CNC(=O)c1ccc(N2CCC(N3CC(c4cc5cccc(F)c5c(=O)[nH]4)C(F)(F)C3)CC2)cn1` (racemic) [Compound 393rac, 5-(4-(3,3-difluoro-4-(8-fluoro-1-oxo-1,2-dihydroisoquinolin-3-yl)pyrrolidin-1-yl)piperidin-1-yl)-N-methylpicolinamide], the pKd in assay [1] (probe displacement HTRF) is 5.00 to 6.00; in assay [2] (setting [8]), over 8.00. For the same compound, in assay [2] (probe displacement HTRF), the Selectivity result was “+++ (+++ indicate a value of at least 100)”. In assay [3] (setting [5]), the pIC50 was over 8.00.
As for `CNC(=O)c1ccc(N2CCC(N3CCC(c4ccc(COC)c(=O)[nH]4)C3)CC2)cn1` (single isomer, unassigned) [Compound 207b], the pKd in assay [1] (PARP2 probe displacement HTRF) was under 5.00; in assay [2] (setting [6]), 6.00 to 7.00. Moreover, the Selectivity result in assay [2] (probe displacement HTRF) is “− (− indicates a value of less than 10)”. In addition, the pIC50 in assay [3] (setting [7]) was 6.00 to 7.00.
With `N#Cc1nc(C(=O)NC2CC2)ccc1N1CCC(N2CC3(c4nc5ccc(F)cc5c(=O)[nH]4)CC2C3)CC1` [Compound 388], the pKd in assay [1] (probe displacement HTRF) is 6.00 to 7.00; in assay [2] (setting [8]), over 8.00. Besides, the Selectivity result in assay [2] (probe displacement HTRF) is given as “+++ (+++ indicate a value of at least 100)”. In addition, the pIC50 in assay [3] (setting [5]) is over 8.00.
With `CNC(=O)c1ccc(N2CC(N3CCCC(Cc4nc5ccccc5c(=O)[nH]4)C3)C2)cn1` (single isomer, unassigned) [Compound 51a], the pKd in assay [1] (PARP2 probe displacement HTRF) was under 5.00; in assay [2] (setting [6]) it was 6.00 to 7.00. Besides, in assay [2] (probe displacement HTRF), the Selectivity result was “+ (+ indicates a value of 10 to less than 50)”. Further, in assay [3] (setting [7]), the pIC50 is 6.00 to 7.00.
Turning to `CNC(=O)c1ccc(N2CCC(N3CCC(c4ccc(C(C)C)c(=O)[nH]4)C3)CC2)cn1` (racemic) [Compound 142rac], the pKd in assay [1] (PARP2 probe displacement HTRF) is 5.00 to 6.00; in assay [2] (setting [6]), over 8.00. Also, the Selectivity entry in assay [2] (probe displacement HTRF) is given as “+++ (+++ indicate a value of at least 100)”. The pIC50 in assay [3] (setting [7]) was over 8.00.
For `CNC(=O)c1ccc(N2CCC(N3CCC(c4ccc(OC)c(=O)[nH]4)C3)CC2)c(C(F)(F)F)n1` (single isomer, unassigned) [Compound 152a], the pKd in assay [1] (PARP2 probe displacement HTRF) is 5.00 to 6.00; in assay [2] (setting [6]), over 8.00. The Selectivity entry in assay [2] (probe displacement HTRF) was “+++ (+++ indicate a value of at least 100)”. Besides, in assay [3] (setting [7]), the negative-log IC50 (pIC50) is over 8.00.
For the compound `CNC(=O)c1ccc(N2CCC(N3CCC(c4ccc(Cl)c(=O)[nH]4)C3)CC2)cn1` (single isomer, unassigned) [Compound 201a], the pKd in assay [1] (PARP2 probe displacement HTRF) was under 5.00; in assay [2] (setting [6]), 6.00 to 7.00. In assay [2] (probe displacement HTRF), the Selectivity entry is on record as “+ (+ indicates a value of 10 to less than 50)”. The pIC50 in assay [3] (setting [7]) is 6.00 to 7.00.
`CNC(=O)c1ccc(N2CCC(N3CCC(c4nc5ccccc5c(=O)[nH]4)C3)CC2)c(C(F)(F)F)n1` (single isomer, unassigned) [Compound 139b]: the pKd in assay [1] (PARP2 probe displacement HTRF) is 5.00 to 6.00; in assay [2] (setting [6]), 7.00 to 8.00. The Selectivity result in assay [2] (probe displacement HTRF) is “+++ (+++ indicate a value of at least 100)”. The pIC50 in assay [3] (setting [7]) was 7.00 to 8.00.
For `CCc1nc(C(=O)NC)ccc1N1CCC(N2CCC(c3nc4ccccc4c(=O)[nH]3)C2)CC1` (single isomer, unassigned) [Compound 118a], the pKd in assay [1] (PARP2 probe displacement HTRF) was under 5.00; in assay [2] (setting [6]), over 8.00. Moreover, in assay [2] (probe displacement HTRF), the Selectivity entry is “+++ (+++ indicate a value of at least 100)”. The pIC50 in assay [3] (setting [7]) is over 8.00.
In the case of `CNC(=O)c1ccc(N2CCC(N3CCC(c4cnc(CC(F)(F)F)c(=O)[nH]4)C3)CC2)cn1` (single isomer, unassigned) [Compound 287b], the pKd in assay [1] (probe displacement HTRF) is under 5.00; in assay [2] (setting [4]), 5.00 to 6.00. Further, in assay [2] (probe displacement HTRF), the Selectivity entry was “− (− indicates a value of less than 10)”. Also, in assay [3] (setting [5]), the pIC50 is 5.00 to 6.00.
For `CNC(=O)c1ncc(N2CCC(N3CCC(c4cc5cccc(F)c5c(=O)[nH]4)C3)CC2)cn1` (racemic) [Compound 234rac], the pKd in assay [1] (probe displacement HTRF) is 6.00 to 7.00; in assay [2] (setting [4]), over 8.00. Moreover, the Selectivity result in assay [2] (probe displacement HTRF) is reported as “+++ (+++ indicate a value of at least 100)”. Also, the pIC50 in assay [3] (setting [5]) was over 8.00.
Turning to `CNC(=O)c1cnc(N2CCC(N3CCC(c4nc5ccccc5c(=O)[nH]4)C3)CC2)nc1` (racemic) [Compound 318rac], the pKd in assay [1] (probe displacement HTRF) was 6.00 to 7.00; in assay [2] (setting [4]), 7.00 to 8.00. Also, in assay [2] (probe displacement HTRF), the Selectivity result is reported as “+ (+ indicates a value of 10 to less than 50)”. Also, the pIC50 in assay [3] (setting [5]) was 7.00 to 8.00.
On to `CCc1ccc(C2CCN(C3CCN(c4ccc(C#N)cc4)CC3)C2)[nH]c1=O` (single isomer, unassigned) [Compound 317b], for which the pKd in assay [1] (probe displacement HTRF) was 6.00 to 7.00; in assay [2] (setting [4]), over 8.00. The Selectivity entry in assay [2] (probe displacement HTRF) is given as “+++ (+++ indicate a value of at least 100)”. For the same compound, the pIC50 in assay [3] (setting [5]) was over 8.00.
